Assay results: publication PMC12120773, “SIRT4 Promotes Pancreatic Cancer Stemness by Enhancing Histone Lactylation and Epigenetic Reprogramming Stimulated by Calcium Signaling” (Advanced Science, 2025)

Columns and labels:
[1] = target: T1, ENO1 (Enolase 1, α isoform of enolase) (Homo sapiens, UniProt P06733, K358Q); test: SPR steady-state affinity (Biacore T200, CM5 chip); type: binding
T1 construct: recombinant protein expressed in E. coli (printed for the mutants), amine-coupled to CM5 chip

[2] = target: T2, ENO1 (Enolase 1, α isoform of enolase) (Homo sapiens, UniProt P06733, K358R); test: SPR steady-state affinity (Biacore T200, CM5 chip); type: binding
T2 construct: recombinant protein expressed in E. coli (printed for the mutants), amine-coupled to CM5 chip
T2 sequence (P06733 2-434 K358R): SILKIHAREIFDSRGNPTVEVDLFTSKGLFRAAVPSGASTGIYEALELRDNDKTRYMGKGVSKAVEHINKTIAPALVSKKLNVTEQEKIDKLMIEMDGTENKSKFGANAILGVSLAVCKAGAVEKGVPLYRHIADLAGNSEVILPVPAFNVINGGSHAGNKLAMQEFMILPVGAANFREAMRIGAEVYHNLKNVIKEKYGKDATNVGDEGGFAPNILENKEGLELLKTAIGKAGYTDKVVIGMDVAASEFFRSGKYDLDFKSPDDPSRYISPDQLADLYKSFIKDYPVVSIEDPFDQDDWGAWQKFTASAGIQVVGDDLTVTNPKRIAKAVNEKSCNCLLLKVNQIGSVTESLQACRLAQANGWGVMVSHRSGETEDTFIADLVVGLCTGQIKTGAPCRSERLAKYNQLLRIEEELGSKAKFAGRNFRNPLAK

T1 sequence (P06733 2-434 K358Q): as the sequence (P06733 2-434 K358R) above, with R357Q counted along it

O=C(O)[C@@H](CO)OP(=O)(O)O [2‐PG] gave a Kd [1] of 17.7 µM and a Kd [2] of 2.61 µM.
